11 compounds from patent US20260125382A1, “COMPOUNDS FOR INHIBITING OR DEGRADING CDK2 AND/OR CDK9 AND MEDICINAL USE THEREOF” (KOREA RESEARCH INSTITUTE OF CHEMICAL TECHNOLOGY, priority 2022, published 2026) can be followed below.

One assay has as its target T1, CDK2 (Homo sapiens, UniProt P24941).
T1 construct: endogenous in cells; host or cells: MDA-MB-231
Briefly: CDK protein degradation activity (Western blotting), CDK2. Type of assay: cell-based. The note with it: MDA-MB-231 cells, 16 hours, Western blot. Here is the method: (§1) In order to evaluate the CDK protein degradation activity of the compounds according to the present invention, the following experiment was conducted.
(§2) MDA-MB-231 cells were seeded at 5×10^5 cells per well in a 6-well plate. The next day, the compounds were treated in each well to achieve final concentrations of 100 nM, 1 μM, and 10 μM. For the control group, an equal amount of DMSO was treated in the well as the compound. After 16 hours of treatment, cells were collected, and cell lysates were prepared using Triton X-100 lysis buffer (50 mM HEPES, pH 7.5, 40 mM NaCl, 1% Triton X-100, 1 mM EDTA, 1 mM EGTA, 10 mM pyrophosphate, 10 mM β-glycerophosphate, 50 mM NaF, 1 mM NaVO4, protease inhibitor). Cell lysates were quantified and separated by size using sodium dodecyl sulfate-polyacrylamide gel electrophoresis (SDS-PAGE). Western blotting was then performed using antibodies that recognize CDK2, CDK9, and tubulin, respectively. The results obtained by Western blotting were quantitatively analyzed using the ImageJ program, and representative images according to the experimental results are shown in FIG. 1.

A further assay concerns the target T2, CDK9 (Homo sapiens, UniProt P50750).
T2 construct: endogenous in cells; host or cells: MDA-MB-231
In words: CDK protein degradation activity (Western blotting), CDK9. It counts as cell-based. The note with it: MDA-MB-231 cells, 16 hours, Western blot. Here is the method: as §1, §2
In general terms: In western blotting, separated proteins are transferred to a membrane and probed.

T2 sequence (P50750 whole entry): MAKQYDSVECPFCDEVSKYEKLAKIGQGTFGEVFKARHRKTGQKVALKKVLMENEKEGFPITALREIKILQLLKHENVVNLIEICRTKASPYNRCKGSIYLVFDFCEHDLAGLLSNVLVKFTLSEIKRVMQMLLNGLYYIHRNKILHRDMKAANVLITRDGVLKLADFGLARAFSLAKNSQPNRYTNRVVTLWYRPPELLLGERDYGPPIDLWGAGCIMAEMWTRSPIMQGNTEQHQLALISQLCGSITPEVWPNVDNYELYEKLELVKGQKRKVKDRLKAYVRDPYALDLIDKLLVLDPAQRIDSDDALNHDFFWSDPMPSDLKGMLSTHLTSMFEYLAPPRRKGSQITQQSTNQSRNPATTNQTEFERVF

As to `Cc1cccc(C(=O)NC2CC(n3cnc4c(NCCC5CCN(CC6CCN(c7cccc8c7C(=O)N([C@H]7CCC(=O)NC7=O)C8=O)CC6)CC5)ncnc43)C2)n1` (stereo partly drawn) [Compound 306, N-((1s,3s)-3-(6-((2-(1-((1-(2-(2,6-dioxopiperidin-3-yl)-1,3-dioxoisoindolin-4-yl)piperidin-4-yl)methyl)piperidin-4-yl)ethyl)amino)-9H-purin-9-yl)cyclobutyl)-6-methylpicolinamide], at CDK2, the “Enzyme degradation CDK2 (% remaining) @ 0.1 μM” value is 100/100/100%, the “Enzyme degradation CDK2 (% remaining) @ 1 μM” value is 100/100/100% and the “Enzyme degradation CDK2 (% remaining) @ 10 μM” value is 100/100/100%. At CDK9, the “Enzyme degradation CDK9 (% remaining) @ 0.1 μM” value is reported as 30%, the “Enzyme degradation CDK9 (% remaining) @ 1 μM” value was 0% and the “Enzyme degradation CDK9 (% remaining) @ 10 μM” value is 10%.

As for `Cc1cccc(C(=O)N[C@H]2C[C@@H](n3cnc4c(NCc5cccc(N6CCN(CC7CCN(c8ccc9c(c8)C(=O)N([C@H]8CCC(=O)NC8=O)C9=O)CC7)CC6)c5)ncnc43)C2)n1` [Compound 137, N-((1s,3s)-3-(6-((3-(4-((1-(2-(2,6-dioxopiperidin-3-yl)-1,3-dioxoisoindolin-5-yl)piperidin-4-yl)methyl)piperazin-1-yl)benzyl)amino)-9H-purin-9-yl)cyclobutyl)-6-methylpicolinamide], on CDK2, the “Enzyme degradation CDK2 (% remaining) @ 0.1 μM” value stood at 30%, the “Enzyme degradation CDK2 (% remaining) @ 1 μM” value was 40% and the “Enzyme degradation CDK2 (% remaining) @ 10 μM” value was found to be 40%. Moreover, on CDK9, the “Enzyme degradation CDK9 (% remaining) @ 0.1 μM” value was 0/0/0%, the “Enzyme degradation CDK9 (% remaining) @ 1 μM” value was 0/0/0% and the “Enzyme degradation CDK9 (% remaining) @ 10 μM” value is 0/0/0%.

Take `O=C1CCC(N2C(=O)c3ccc(NCC(=O)N4CCC(CN5CCC(CNc6ncnc7c6ncn7[C@H]6C[C@@H](NC(=O)c7c(Cl)cccc7Cl)C6)CC5)CC4)cc3C2=O)C(=O)N1` (stereo partly drawn) [Compound 171, 2,6-dichloro-N-((1s,3s)-3-(6-(((1-((1-((2-(2,6-dioxopiperidin-3-yl)-1,3-dioxoisoindolin-5-yl)glycyl)piperidin-4-yl)methyl)piperidin-4-yl)methyl)amino)-9H-purin-9-yl)cyclobutyl)benzamide]: at CDK2, the “Enzyme degradation CDK2 (% remaining) @ 0.1 μM” value stood at 20%, the “Enzyme degradation CDK2 (% remaining) @ 1 μM” value was 10% and the “Enzyme degradation CDK2 (% remaining) @ 10 μM” value is recorded as 10%. Also, at CDK9, the “Enzyme degradation CDK9 (% remaining) @ 0.1 μM” value is given as 0/0/0%, the “Enzyme degradation CDK9 (% remaining) @ 1 μM” value is listed as 0/0/0% and the “Enzyme degradation CDK9 (% remaining) @ 10 μM” value is given as 0/0/0%.

For the compound `O=C1CCC(N2C(=O)c3cccc(OCC(=O)N4CCC5(CC4)CC(N4CCN(c6ccc(Nc7ncnc8c7ncn8[C@H]7C[C@@H](NC(=O)Cc8ccccc8)C7)cc6)CC4)C5)c3C2=O)C(=O)N1` (stereo partly drawn) [Compound 206, N-((1s,3s)-3-(6-((4-(4-(7-(2-((2-(2,6-dioxopiperidin-3-yl)-1,3-dioxoisoindolin-4-yl)oxy)acetyl)-7-azaspiro[3.5]nonan-2-yl)piperazin-1-yl)phenyl)amino)-9H-purin-9-yl)cyclobutyl)-2-phenylacetamide], on CDK2, the “Enzyme degradation CDK2 (% remaining) @ 0.1 μM” value was determined as 20%, the “Enzyme degradation CDK2 (% remaining) @ 1 μM” value is on record as 20% and the “Enzyme degradation CDK2 (% remaining) @ 10 μM” value was 10%. Besides, on CDK9, the “Enzyme degradation CDK9 (% remaining) @ 0.1 μM” value was 0/0/0%, the “Enzyme degradation CDK9 (% remaining) @ 1 μM” value is listed as 0/0/0% and the “Enzyme degradation CDK9 (% remaining) @ 10 μM” value was 0/0/0%.

For the compound `Cc1cccc(C(=O)NC2CC(n3cnc4c(NC5CCN(CCOC6CCN(c7cccc8c7C(=O)N([C@H]7CCC(=O)NC7=O)C8=O)CC6)CC5)ncnc43)C2)n1` (stereo partly drawn) [Compound 48, N-((1s,3s)-3-(6-((1-(2-((1-(2-(2,6-dioxopiperidin-3-yl)-1,3-dioxoisoindolin-4-yl)piperidin-4-yl)oxy)ethyl)piperidin-4-yl)amino)-9H-purin-9-yl)cyclobutyl)-6-methylpicolinamide], on CDK2, the “Enzyme degradation CDK2 (% remaining) @ 0.1 μM” value is recorded as 100/100/100%, the “Enzyme degradation CDK2 (% remaining) @ 1 μM” value is given as 100/100/100% and the “Enzyme degradation CDK2 (% remaining) @ 10 μM” value is listed as 100/100/100%. Also, on CDK9, the “Enzyme degradation CDK9 (% remaining) @ 0.1 μM” value is 50%, the “Enzyme degradation CDK9 (% remaining) @ 1 μM” value is 20% and the “Enzyme degradation CDK9 (% remaining) @ 10 μM” value is reported as 20%.

For the compound `Cc1cccc(C(=O)NC2CC(n3cnc4c(NCCCN5CCN(CC6CCN(C(=O)COc7ccc([C@@H]8CCC(=O)NC8=O)cc7)CC6)CC5)ncnc43)C2)n1` (stereo partly drawn) [Compound 229, N-((1s,3s)-3-(6-((3-(4-((1-(2-(4-(2,6-dioxopiperidin-3-yl)phenoxy)acetyl)piperidin-4-yl)methyl)piperazin-1-yl)propyl)amino)-9H-purin-9-yl)cyclobutyl)-6-methylpicolinamide], on CDK2, the “Enzyme degradation CDK2 (% remaining) @ 0.1 μM” value is given as 70%, the “Enzyme degradation CDK2 (% remaining) @ 1 μM” value was determined as 90% and the “Enzyme degradation CDK2 (% remaining) @ 10 μM” value stood at 100%. For the same compound, at CDK9, the “Enzyme degradation CDK9 (% remaining) @ 0.1 μM” value is given as 20%, the “Enzyme degradation CDK9 (% remaining) @ 1 μM” value was determined as 10% and the “Enzyme degradation CDK9 (% remaining) @ 10 μM” value was 0%.

For `O=C1CC[C@@H](c2ccc(OCC(=O)N3CCC(CCN4CCN(c5ccc(Nc6ncnc7c6ncn7C6CC(NC(=O)Cc7ccccc7)C6)cc5)CC4)CC3)cc2)C(=O)N1` (stereo partly drawn) [Compound 433, N-((1s,3s)-3-(6-((4-(4-(2-(1-(2-(4-(2,6-dioxopiperidin-3-yl)phenoxy)acetyl)piperidin-4-yl)ethyl)piperazin-1-yl)phenyl)amino)-9H-purin-9-yl)cyclobutyl)-2-phenylacetamide], on CDK2, the “Enzyme degradation CDK2 (% remaining) @ 0.1 μM” value is on record as 80%, the “Enzyme degradation CDK2 (% remaining) @ 1 μM” value came out at 90% and the “Enzyme degradation CDK2 (% remaining) @ 10 μM” value came out at 90%. Besides, on CDK9, the “Enzyme degradation CDK9 (% remaining) @ 0.1 μM” value worked out at 20%, the “Enzyme degradation CDK9 (% remaining) @ 1 μM” value was found to be 10% and the “Enzyme degradation CDK9 (% remaining) @ 10 μM” value was determined as 10%.

Regarding `Cc1cccc(C(=O)NC2CC(n3cnc4c(NCC5CCN(CC6CCN(c7ccc8c(c7)C(=O)N([C@@H]7CCC(=O)NC7=O)C8=O)CC6)CC5)ncnc43)C2)n1` (stereo partly drawn) [Compound 76, N-((1r,3r)-3-(6-(((1-((1-(2-(2,6-dioxopiperidin-3-yl)-1,3-dioxoisoindolin-5-yl)piperidin-4-yl)methyl)piperidin-4-yl)methyl)amino)-9H-purin-9-yl)cyclobutyl)-6-methylpicolinamide], at CDK2, the “Enzyme degradation CDK2 (% remaining) @ 0.1 μM” value is 100/100/100%, the “Enzyme degradation CDK2 (% remaining) @ 1 μM” value was 100/100/100% and the “Enzyme degradation CDK2 (% remaining) @ 10 μM” value is 100/100/100%. For the same compound, at CDK9, the “Enzyme degradation CDK9 (% remaining) @ 0.1 μM” value is recorded as 30%, the “Enzyme degradation CDK9 (% remaining) @ 1 μM” value came to 20% and the “Enzyme degradation CDK9 (% remaining) @ 10 μM” value came to 10%.

For the compound `Cc1cccc(C(=O)NC2CC(n3cnc4c(Nc5ccc(N6CCN(CCC7CCN(c8ccc9c(c8)C(=O)N([C@H]8CCC(=O)NC8=O)C9=O)CC7)CC6)cc5)ncnc43)C2)n1` (stereo partly drawn) [Compound 380, N-((1s,3s)-3-(6-((4-(4-(2-(1-(2-(2,6-dioxopiperidin-3-yl)-1,3-dioxoisoindolin-5-yl)piperidin-4-yl)ethyl)piperazin-1-yl)phenyl)amino)-9H-purin-9-yl)cyclobutyl)-6-methylpicolinamide], on CDK2, the “Enzyme degradation CDK2 (% remaining) @ 0.1 μM” value amounted to 40%, the “Enzyme degradation CDK2 (% remaining) @ 1 μM” value is 40% and the “Enzyme degradation CDK2 (% remaining) @ 10 μM” value was found to be 30%. Moreover, on CDK9, the “Enzyme degradation CDK9 (% remaining) @ 0.1 μM” value is on record as 0/0/0%, the “Enzyme degradation CDK9 (% remaining) @ 1 μM” value was 0/0/0% and the “Enzyme degradation CDK9 (% remaining) @ 10 μM” value is 0/0/0%.

Take `O=C1CC[C@H](N2C(=O)c3cc(F)c(N4CCC(CCN5CCN(c6ccc(Nc7ncnc8c7ncn8C7CC(NC(=O)c8c(Cl)cccc8Cl)C7)cc6)CC5)CC4)cc3C2=O)C(=O)N1` (stereo partly drawn) [Compound 406, 2,6-dichloro-N-((1s,3s)-3-(6-((4-(4-(2-(1-(2-(2,6-dioxopiperidin-3-yl)-6-fluoro-1,3-dioxoisoindolin-5-yl)piperidin-4-yl)ethyl)piperazin-1-yl)phenyl)amino)-9H-purin-9-yl)cyclobutyl)benzamide]: on CDK2, the “Enzyme degradation CDK2 (% remaining) @ 0.1 μM” value is given as 30/30/30%, the “Enzyme degradation CDK2 (% remaining) @ 1 μM” value was 30/30/30% and the “Enzyme degradation CDK2 (% remaining) @ 10 μM” value is listed as 30/30/30%. Further, at CDK9, the “Enzyme degradation CDK9 (% remaining) @ 0.1 μM” value is recorded as 0/0/0%, the “Enzyme degradation CDK9 (% remaining) @ 1 μM” value is 0/0/0% and the “Enzyme degradation CDK9 (% remaining) @ 10 μM” value was 0/0/0%.

Regarding `Cc1cccc(C(=O)N[C@H]2C[C@@H](n3cnc4c(NCc5ccc(OCC6CCN(C(=O)CNc7ccc8c(c7)C(=O)N([C@H]7CCC(=O)NC7=O)C8=O)CC6)cc5)ncnc43)C2)n1` [Compound 108, N-((1s,3s)-3-(6-((4-((1-((2-(2,6-dioxopiperidin-3-yl)-1,3-dioxoisoindolin-5-yl)glycyl)piperidin-4-yl)methoxy)benzyl)amino)-9H-purin-9-yl)cyclobutyl)-6-methylpicolinamide], at CDK2, the “Enzyme degradation CDK2 (% remaining) @ 0.1 μM” value stood at 30%, the “Enzyme degradation CDK2 (% remaining) @ 1 μM” value was 30% and the “Enzyme degradation CDK2 (% remaining) @ 10 μM” value is reported as 60%. Also, on CDK9, the “Enzyme degradation CDK9 (% remaining) @ 0.1 μM” value is 0/0/0%, the “Enzyme degradation CDK9 (% remaining) @ 1 μM” value is recorded as 0/0/0% and the “Enzyme degradation CDK9 (% remaining) @ 10 μM” value is 0/0/0%.
